Marks after values point to notes of the source that are not given here.
Assays:
Format in all cases: in vivo
[1] = tested on: Puccinia recondite f. sp. tritici; test: Test E2: preventive spray on wheat seedlings, visual disease rating (wheat leaf rust); details: for pest or weed control at 40 ppm: 192 h
Procedure, shortened: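 Wheat seedlings were inoculated with leaf rust spores one day after a run-off spray of compound at 200 ppm (asterisk: 40 ppm) in 50/50 acetone/water with 250 ppm Trem 014. Incubation: 24 h saturated humidity, 20 °C; then 7 days growth chamber, 20 °C. Disease control scored visually, 0–100% relative to controls.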

Botrytis cinerea = test: Test A: preventive spray on tomato seedlings, visual disease rating (tomato Botrytis)
Procedure, shortened: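 Preventive test: Botrytis cinerea spores applied one day after run-off spraying at 200 ppm (≈800 g/ha), or 40 ppm where asterisked. Incubation 48 h at 20 °C in saturated air, then 3 days at 24 °C; disease scored visually from 0 (no control) to 100 (complete control) versus untreated.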

[2] = tested on: Blumeria graminis f. sp. tritici; test: Test F: preventive spray on wheat seedlings, visual disease rating (wheat powdery mildew); details: for pest or weed control at 40 ppm: Blumeria graminis, 192 h
Procedure, shortened: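 Visual ratings (0–100% control relative to controls) taken 8 days after spore-dust inoculation at 20° C. Inoculation followed one day after a protective run-off spray of 200 ppm suspension, equal to 800 g/ha, or 40 ppm where flagged, made in acetone/water with 250 ppm surfactant.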

Septoria tritici = test: Test D: preventive spray on wheat seedlings, visual disease rating (wheat leaf blotch); details: for pest or weed control at 40 ppm: Zymoseptoria tritici, 504 h
Procedure, shortened: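 Protection was scored visually on a 0–100% disease-control scale versus controls, 19 days after plants were moved to 20 °C following 48 h of 24 °C saturated humidity. Spore inoculation with S. tritici took place one day after a preventive run-off spray, usually at 200 ppm (800 g/ha) and at 40 ppm where asterisked.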

Septoria nodorum = test: Test C: preventive spray on wheat seedlings, visual disease rating (Septoria glume blotch); details: for pest or weed control at 40 ppm: Parastagonospora nodorum, 192 h
Excerpt: (§1) General protocol for preparing test suspensions for Tests A-F: the test compounds were first dissolved in acetone in an amount equal to 3% of the final volume and then suspended at the desired concentration (in ppm) in acetone and purified water (50/50 mix by volume) containing 250 ppm of the surfactant Trem® 014 (polyhydric alcohol esters). The resulting test suspensions were then used in Tests A-F. Spraying a 200 ppm test suspension to the point of run-off on the test plants was the equivalent of a rate of 800 g/ha. Unless otherwise indicated, the rating values indicate a 200 ppm test suspension was used. (An asterisk “*” next to the rating value indicates a 40 ppm test suspension was used.)
(§2) The test suspension was sprayed to the point of run-off on wheat seedlings. The following day the seedlings were inoculated with a spore suspension of Septoria nodorum (the causal agent of Septoria glume blotch) and incubated in a saturated atmosphere at 24° C. for 48 h, and then moved to a growth chamber at 20° C. for 6 days, after which time visual disease ratings were made.
(§3) Results for Tests A-F are given in Table A. In the Table, a rating of 100 indicates 100% disease control and a rating of 0 indicates no disease control (relative to the controls). A dash (-) indicates no test results. An asterisk “*” next to the rating value indicates a 40 ppm test suspension was used.

Alternaria solani = test: Test B: preventive spray on tomato seedlings, visual disease rating (tomato early blight); details: for pest or weed control at 40 ppm: Alternaria solani, 168 h
Excerpt: as §1
as §2, with “tomato” for “wheat”, “Alternaria solani” for “Septoria nodorum”, “tomato early blight)” for “Septoria glume blotch)”, “27°” for “24°”, “5” for “6”
as §3

[3] = tested on: Puccinia recondite f. sp. tritici; test: Test E1: curative spray on wheat seedlings after inoculation, visual disease rating (wheat leaf rust); details: for pest or weed control at 40 ppm: 144 h
Excerpt: as §1
Wheat seedlings were inoculated with a spore suspension of Puccinia recondite f. sp. tritici (the causal agent of wheat leaf rust) and incubated in a saturated atmosphere at 20° C. for 24 h, and then moved to a growth chamber at 20° C. for 2 days. After 2 days, the test suspension was sprayed to the point of run-off on the wheat seedlings, and then the seedlings were moved back to the growth chamber at 20° C. for 6 days. Upon removal, visual disease ratings were made.
as §3

[4] = asterisk: 40 ppm test suspension
[5] = no asterisk: standard test suspension, not 40 ppm
[6] = no asterisk: standard test suspension, not 40 ppm, 100 = 100% disease control, 0 = none

Molecule | Test E2 rating (% disease control) [1, 5] [%] | Test A rating (% disease control) (Botrytis cinerea; [6]) [%] | Test F rating (% disease control) [2, 5] [%] | Test D rating (% disease control) (Septoria tritici; [5]) [%] | Test C rating (% disease control) (Septoria nodorum; [5]) [%] | Test B rating (% disease control) (Alternaria solani; [5]) [%] | Test E1 rating (% disease control) [3, 5] [%] | also measured
Cc1nn(C)c(-c2ccc(F)cc2Cl)c1Nc1ccc(Cl)cc1Cl [compound 44] |  |  |  |  |  |  |  | Test E2 rating (% disease control) [1, 4]: 99* %; Test A rating (% disease control) (Botrytis cinerea; [4]): 99* %; Test F rating (% disease control) [2, 4]: 100* %; Test D rating (% disease control) (Septoria tritici; [4]): 99* %; Test C rating (% disease control) (Septoria nodorum; [4]): 0* %; Test B rating (% disease control) (Alternaria solani; [4]): 0* %; Test E1 rating (% disease control) [3, 4]: 0* %
Cc1nn(C)c(-c2ccc(F)cc2F)c1Oc1ccc(C#N)cc1Cl [compound 35] | 73 | 98 | 0 | 100 | 0 | 0 | 9 | 
Cc1nn(C)c(-c2ccc(F)cc2Cl)c1Nc1ccc(F)cc1Cl [compound 42] | 99 | 99 | 100 | 100 | 0 | 99 | 32 | 
Cc1nn(C)c(-c2c(F)cccc2Cl)c1C(=O)c1ccc(Cl)cc1Cl [compound 27] | 0 | 0 | 81 | 0 | 0 | 0 | 0 | 
Cc1nn(C)c(-c2c(F)cc(F)cc2F)c1C(O)c1ccc(F)cc1F (centres unmarked) [compound 66] | 100 | 100 | 99 | 100 | 95 | 100 | 55 | 
Cc1nn(C)c(-c2ccc(F)cc2F)c1Oc1ccc(F)cc1F [compound 13] | 0 | 100 | 72 | 0 | 0 | 0 | 66 | 
Cc1nn(C)c(-c2c(F)cccc2F)c1S(=O)(=O)c1ccc(Cl)cc1 [compound 62] | 28 | 0 | 94 | 0 | 0 | 0 | 0 | 
Cc1nn(C)c(-c2ccc(F)cc2Cl)c1Nc1ccc(F)cc1Br [compound 58] |  |  |  |  |  |  |  | Test E2 rating (% disease control) [1, 4]: 98* %; Test A rating (% disease control) (Botrytis cinerea; [4]): 100* %; Test F rating (% disease control) [2, 4]: 97* %; Test D rating (% disease control) (Septoria tritici; [4]): 100* %; Test C rating (% disease control) (Septoria nodorum; [4]): 0* %; Test B rating (% disease control) (Alternaria solani; [4]): 8* %; Test E1 rating (% disease control) [3, 4]: 0* %
Cc1nn(C)c(-c2c(F)cccc2F)c1C(O)c1ccc(F)cc1Br (centres unmarked) [compound 21] | 100 | 99 | 98 | 100 | 100 | 100 | 100 | 
COc1cc(F)c(C(O)c2c(C)nn(C)c2-c2c(F)cccc2Cl)c(F)c1 (centres unmarked) [compound 39] | 100 | 95 | 99 | 100 | 60 | 58 | 97 | 
Cc1nn(C)c(-c2ccc(C#N)cc2F)c1Oc1ccc(F)cc1F [compound 26] | 79 | 100 | 64 |  | 0 | 0 | 0 | 
Cc1nn(C)c(-c2c(F)cccc2F)c1C(=O)c1ccc(F)cc1F [compound 24] | 79 | 9 | 96 | 0 | 0 | 0 | 9 | 
α-(2,4-difluorophenyl)-5-(2,4-difluorophenyl)-1,3-dimethyl-1H-pyrazole-4-methanol [Compound 72] | 40 | 100 | 99 | 99 | 0 | 0 | 0 | 
Cc1nn(C)c(-c2ccccc2Br)c1C(=O)c1ccc(F)cc1Cl [compound 78] | 79 | 0 | 99 | 0 | 40 | 31 | 0 | 
Cn1nc(C#N)c(C(O)c2ccc(F)cc2Cl)c1-c1c(F)cccc1F (centres unmarked) [Compound 53, 4-[(2-chloro-4-fluorophenyl)hydroxymethyl]-5-(2,6-difluorophenyl)-1-methyl-1H-pyrazole-3-carbonitrile] |  |  |  |  |  |  |  | pest or weed control at 40 ppm [1, 4]: 93%; pest or weed control at 40 ppm (Botrytis cinerea; Botrytis cinerea, 120 h, asterisk: 40 ppm test suspension): 93%; pest or weed control at 40 ppm [2, 4]: 43%; pest or weed control at 40 ppm (Septoria tritici; [4]): 100%; pest or weed control at 40 ppm (Septoria nodorum; [4]): 0%; pest or weed control at 40 ppm (Alternaria solani; [4]): 99%; pest or weed control at 40 ppm [3, 4]: 0%
Cc1nn(C)c(-c2c(F)cccc2Cl)c1C(C)(O)c1ccc(F)cc1F (centres unmarked) [Compound 29] | 100 | 100 | 96 |  | 0 | 64 | 0 | 
Cc1nn(C)c(-c2ccc(F)cc2F)c1C(O)c1ccc(F)cc1F (stereo not drawn) [Compound 72, α-(2,4-difluorophenyl)-5-(2,4-difluorophenyl)-1,3-dimethyl-1H-pyrazole-4-methanol] |  |  |  |  |  |  |  | pest or weed control at 40 ppm [1, 4]: 96%; pest or weed control at 40 ppm [2, 4]: 98%; pest or weed control at 40 ppm (Septoria tritici; [4]): 100%; pest or weed control at 40 ppm (Septoria nodorum; [4]): 0%; pest or weed control at 40 ppm (Alternaria solani; [4]): 53%; pest or weed control at 40 ppm [3, 4]: 18%
Cc1nn(C)c(-c2c(Cl)cccc2Cl)c1C(O)c1c(F)cc(F)cc1F (centres unmarked) [compound 70] | 100 |  | 99 | 100 | 60 | 99 | 94 | 
Cc1nn(C)c(-c2c(Cl)cccc2Cl)c1C(O)c1ccc(F)cc1F (centres unmarked) [compound 74] | 99 |  | 98 | 99 | 92 | 100 | 0 | 
Cc1nn(C)c(-c2c(F)cccc2F)c1C(F)c1ccc(Cl)cc1Cl (centres unmarked) [Compound 92] |  |  |  |  |  |  |  | Test E2 rating (% disease control) [1, 4]: 99* %; Test F rating (% disease control) [2, 4]: 100* %; Test D rating (% disease control) (Septoria tritici; [4]): 100* %; Test C rating (% disease control) (Septoria nodorum; [4]): 94* %; Test B rating (% disease control) (Alternaria solani; [4]): 99* %; Test E1 rating (% disease control) [3, 4]: 74* %
